Bounds are passed on as bounds.

One data set relates to HT-29. The experiment in a line: Cytotoxicity against human HT-29 cells assessed as reduction of cell viability measured after 16 hrs by crystal violet staining assay. The class given is functional, cell-based.
Data set [1] has as its system Trypanosoma brucei rhodesiense. The experiment in a line: Antiprotozoal activity against Trypanosoma brucei rhodesiense STIB900 trypomastigotes assessed as growth inhibition after 72 hrs by Alamar Blue dye-based fluorometric analysis. The class given is functional, organism-based.
The next data set relates to Leishmania donovani. The experiment in a line: Antiprotozoal activity against Leishmania donovani MHOM/ET/67/L82 axenic amastigotes assessed as growth inhibition after 72 hrs by Alamar Blue dye-based fluorometric analysis. Type of data set: functional, organism-based.
In the next data set the test system is L6. The experiment in a line: Cytotoxicity against rat L6 cells assessed as reduction in cell viability after 72 hrs by Alamar blue dye-based fluorometric analysis.
Another data set concerns Trypanosoma cruzi. The experiment in a line: Antiprotozoal activity against Trypanosoma cruzi Tulahuen C4 amastigotes infected in rat L6 cells assessed as growth inhibition after 96 by photometric analysis. Type of data set: functional, organism-based.
The test system of data set [2] is Plasmodium falciparum. The experiment in a line: Antiprotozoal activity against chloroquine-sensitive Plasmodium falciparum NF54 assessed as growth inhibition incubated for 48 hrs by [3H]-hypoxanthine incorporation assay. Type of data set: functional, organism-based.
Data set [3] in a line: Selectivity index, ratio of IC50 for cytotoxicity against rat L6 cells to IC50 for antiprotozoal activity against Plasmodium falciparum NF54. Type of data set: toxicity, cell-based.
Another data set relates to MM1.S. The experiment in a line: Cytotoxicity against human MM1S cells assessed as reduction of cell viability incubated for overnight by MTT assay. Type of data set: functional, cell-based.
A further data set deals with HT-1080. The experiment in a line: Cytotoxicity against human HT1080 cells assessed as reduction of cell viability measured after 16 hrs by crystal violet staining assay. Type of data set: functional, cell-based. As to conditions: HT-1080, 16 h; call rule not given here.
Data set [4] has as its system Plasmodium falciparum. The experiment in a line: Antiprotozoal activity against asexual erythrocytic form of chloroquine-sensitive Plasmodium falciparum NF54 clone A1A9 assessed as growth inhibition incubated for 42 hrs by [3H]-hypoxanthine incorporation assay. The class given is functional, organism-based.
[5] abbreviates: Leishmania donovani, MHOM/ET/67/L82, 72 h.
[6] abbreviates: Trypanosoma cruzi, Tulahuen C4, L6.

As to `COc1cccc2c(-c3ccc4c(c3O)[C@@H](C)N(C)[C@@H](C)C4)c(C)cc(OC)c12`, the IC50 result in the data set on HT-29 is reported as “Not Active”.
As to `COc1cc(O)c(-c2c(C)cc(OC)c3c(OC)cccc23)c2c1[C@H](C)N[C@H](C)C2`, the IC50 result with HT-29 was “Not Active”.
Turning to `COc1cc(O)c2c(c1-c1c(C)cc(O)c3c(OC)cccc13)C[C@H](C)N[C@H]2C`, in the data set with HT-29, the IC50 entry is given as “Not Active”.
As for `COc1cccc2c(-c3ccc4c(c3O)[C@@H](C)N[C@H](C)C4)c(C)c(-c3c(C)c(-c4ccc5c(c4O)[C@@H](C)N[C@H](C)C5)c4cccc(OC)c4c3O)c(O)c12` (stereo in doubt; 1a), the IC50 is 0.49 µM in [1]; greater than 50 µM in the data set with HT-29 (read-out: IC50); greater than 100 µM with Leishmania donovani (setting [5]); 7.9 µM in the data set with L6; 14.9 µM with Trypanosoma cruzi; 0.012 µM in the data set on Plasmodium falciparum [2]. Besides, in [3], the “Ratio IC50” value is recorded as 660.
Consider `COc1cccc2c(-c3ccc4c(c3O)[C@@H](C)N[C@H](C)C4)c(C)c(-c3c(C)c(-c4ccc5c(c4O)[C@@H](C)N[C@H](C)C5)c4cccc(OC)c4c3O)c(O)c12` (stereo in doubt; 1b), for which the IC50 came out at 0.32 µM in [1], 4.3 µM in the data set with L6, 17.1 µM with Trypanosoma cruzi and 0.021 µM in the data set with Plasmodium falciparum [2]. The “Ratio IC50” value in [3] came to 206.
Take `COc1cccc2c(-c3ccc4c(c3O)[C@@H](C)N[C@H](C)C4)c(C)c(-c3c(C)c(-c4ccc5c(c4O)[C@@H](C)N[C@H](C)C5)c4cccc(OC)c4c3O)c(O)c12` (stereo in doubt; 1c): the IC50 in data set [1] came out at 0.16 µM; in the data set on Leishmania donovani, 65.2 µM; in the data set with L6, 2.3 µM; in the data set on Trypanosoma cruzi it was 8.1 µM; in the data set with Plasmodium falciparum [2], 0.055 µM. The “Ratio IC50” value in [3] came to 41.6.
Regarding `COc1cccc2c(-c3ccc4c(c3O)[C@@H](C)N[C@H](C)C4)c(C)c(-c3c(C)c(-c4ccc5c(c4O)[C@@H](C)N[C@H](C)C5)c4cccc(OC)c4c3O)c(O)c12` (stereo in doubt; 1d) [listing 1 of 2 here], the IC50 was 5 µM with MM1.S; 0.82 µM in data set [1]; 12 µM in the data set on HT-29 (read-out: IC50); 9 µM with HT-1080; 80.2 µM in the data set on Leishmania donovani; 15.9 µM with L6. In the data set on Trypanosoma cruzi, the IC50 is 13.7 µM. The “Ratio IC50” value in [3] amounted to 11400.
`COc1cccc2c(-c3ccc4c(c3O)[C@@H](C)N[C@H](C)C4)c(C)c(-c3c(C)c(-c4ccc5c(c4O)[C@@H](C)N[C@H](C)C5)c4cccc(OC)c4c3O)c(O)c12` (stereo in doubt; 1d) [listing 2 of 2 here]: the inhibition result with HT-29 is “Dose-dependent effect”.
As for `COc1cccc2c(-c3ccc4c(c3O)[C@@H](C)N[C@H](C)C4)c(C)cc(O)c12` (stereo in doubt; 4a), the IC50 in [1] (Trypanosoma brucei, STIB900, 72 h) is 6.1 µM; in the data set with Leishmania donovani (setting [5]), greater than 100 µM; in the data set with L6 it was 9.1 µM; in the data set on Trypanosoma cruzi (setting [6]), 24.4 µM; with Plasmodium falciparum [2] (Plasmodium falciparum, NF54), 0.67 µM. Also, the “Ratio IC50” value in data set [3] amounted to 13.7.
As for `COc1cccc2c(-c3ccc4c(c3O)[C@@H](C)N[C@H](C)C4)c(C)cc(O)c12` (stereo in doubt; 4b), the IC50 in data set [1] amounted to 4.8 µM; with L6, 44.8 µM; with Trypanosoma cruzi, 45.1 µM; in the data set with Plasmodium falciparum [2] it was 0.85 µM. Moreover, in data set [3], the “Ratio IC50” value worked out at 52.7.
As to `O=C(Cn1ccnc1[N+](=O)[O-])NCc1ccccc1` [BENZNIDAZOLE], the IC50 in the data set on Trypanosoma cruzi (setting [6]) worked out at 2.6 µM.
Turning to `COc1cccc2c(-c3ccc4c(c3O)[C@@H](C)N[C@H](C)C4)c(C)cc(OC)c12` [DIONCOPHYLLINE A], in the data set with Plasmodium falciparum [4], the IC50 turned out to be 3.8 µM.
For `CCCCCCCCCCCCCCCCOP(=O)([O-])OCC[N+](C)(C)C` [MILTEFOSINE], in the data set on Leishmania donovani (setting [5]), the IC50 stood at 0.8 µM.

The values above are taken from ChEMBL document CHEMBL4334514, “A Near-Complete Series of Four Atropisomeric Jozimine A2-Type Naphthylisoquinoline Dimers with Antiplasmodial and Cytotoxic Activities and Related Alkaloids from Ancistrocladus abbreviatus” (J Nat Prod, 2019).
